Data set [1] concerns MDAMB231 (breast cancer) cells. The data set is described as follows: CellTiter-Glo cell viability assay, MDAMB231 cells. The format is cell-based. As to conditions: 48 hours; for viability at 0.1 µM / viability at 1 µM / viability at 10 µM: Homo sapiens, read-out: MDAMB231 cell viability after drug treatment; for viability at 0.1 µM: MDA-MB-231, 0.1 μM; for viability at 1 µM: MDA-MB-231, 1.0 μM; for viability at 10 µM: MDA-MB-231, 10 μM. The method, then: (§1) Using the CellTiter-Glo kit provided by Promega Corporation, cell viability assay was performed on cancer cell lines to evaluate the ability of a compound to kill cancer cells in the in-vitro experiments. The kit measures the ATP levels by an enzymatic Luciferase assay. Normal viable cells will produce a certain level of ATP in metabolism. The enzymic reaction between the ATP product and the luciferase will emit a certain level of luminescent signal, which is captured by a luminometer and recorded as a certain luminescent read. […] When using this method to evaluate the anti-cancer activity of a compound, a certain concentration of an anti-cancer drug is added to the same amount of viable cancer cells, and the luminescent signal reading is acquired at a certain time point via CellTiter-Glo kits. […] Detailed procedure is as follows: a certain amount of small cell lung cancer cells (ATCC catalog No. H446), breast cancer cells (ATCC catalog No. MDAMB231) or colon cancer cells (ATCC catalog No. HCT116) are seeded in 96 wells with the same cell-culture medium, then respectively treated with WQ1001 and other anti-cancer drugs for a time course of 24, 48, and 72 hours. At the respective time points, the cancer cells are mixed with CellTiter-Glo reagents for 1 hour and the corresponding luminescent signals are recorded. Since the luminescent signal reading is proportional to the amount of viable cancer cells, the luminescent signal reading can be translated into the amount of viable cancer cells correspondingly. The cell livability rate is obtained by dividing the amount of viable cancer cells after treated with a certain concentration of anti-cancer drug by the amount of viable cancer cells of the Control Group which are not treated with the drug.
(In general: In ATP-based viability assays light output follows the ATP content of the culture.)

Data set [2] has as its system HCT116 (colon cancer) cells. Nature of the data set: CellTiter-Glo cell viability assay, HCT116 cells. The format is cell-based. Conditions: for viability at 0.1 µM / viability at 1 µM / viability at 10 µM: Homo sapiens, read-out: HCT116 cell viability after drug treatment for 48 hours. The procedure: as §1
The test system of data set [3] is H446 (small cell lung cancer) cells. The data set is described as follows: CellTiter-Glo cell viability assay, H446 cells. In kind it is cell-based, human. Conditions: for viability at 0.1 µM / viability at 1 µM / viability at 10 µM: Homo sapiens, NCI-H446. The procedure:
as §1

The nature of data set [4]: Lactone ring stability (lactone ring conservation rate by HPLC in pH 7.4 buffer). In kind it is physicochemical. As to conditions: lactone ring conservation rate by HPLC after placing in buffer solution of pH 7.4. The procedure: (§2) Table 15 lists comparison of properties between the representative compounds of the present invention and several existing CPT derivatives. In the test, the lactone ring stability was characterized by lactone ring conservation rate measured by HPLC (liquid chromatogram) after placing the test compounds in buffer solution of pH 7.4. The anticancer activity was characterized by viability of H446 cancer cells at 10 μM drug concentration. From the Table, one can learn the differences in water-solubility, lactone ring stability and toxicology of the compounds of the present invention.

Another data set is described as follows: Water-solubility. In kind it is physicochemical. Conditions: for solubility: water. The procedure: as §2
For a further data set, the target named is human serum album (Homo sapiens, UniProt P02768). As to conditions: physiological condition; cited from earlier work.
Data set [5] concerns human breast cancer MCF-7 nude mouse xenograft. The data set is described as follows: In vivo antitumor efficacy, MCF-7 nude mouse xenograft model. Conditions: 35 mg/kg.
Data set [6] deals with human colon cancer HT-29 nude mouse xenograft. The data set is described as follows: In vivo antitumor efficacy, HT-29 nude mouse xenograft model. As to conditions: 35 mg/kg.
For data set [7], the system named is human small cell lung cancer NCI-H446 nude mouse xenograft. Nature of the data set: In vivo antitumor efficacy, NCI-H446 nude mouse xenograft model. The procedure:
The drugs were administered by intravenous injection.
WQ1001 was administered by I.V. injection once every other day for 3 consecutive times, followed by 7 days' rest without drug administration, then one more circle was performed, for a total of 6 times of administration.

Data set [8] has as its system human multiple myeloma NCI-H929 nude mouse xenograft. Nature of the data set: In vivo antitumor efficacy, NCI-H929 nude mouse xenograft model. Conditions: 10 mg/kg (Table 23), intraperitoneal. The procedure:
The human multiple myeloma NCI-H929 cells were grafted to nude mice. […] Two days after tumor cell implantation, the drugs were administered by intraperitoneal injection once every 4 days for a total of 3 injections (on Day 2, 6, 10 after cancer cell implantation). The body weight was measured every 2 days.

Setting [9] is: H446 cells, 0.1 μM, 48 hours, read-out: H446 cell viability after drug treatment for 48 hours.
Where [10] appears, read: H446 cells, 1.0 μM, 48 hours, read-out: H446 cell viability after drug treatment for 48 hours.
Setting [11] is: H446 cells, 10 μM, 48 hours, read-out: H446 cell viability after drug treatment for 48 hours.
Setting [12] is: viability of H446 cancer cells at 10 μM drug concentration (Table 15), read-out: Cancer cell viability.
The mark [13] stands for this setting: viability of H446 cancer cells at 10 μM drug concentration (Table 15).
Where [14] appears, read: topotecan 10 mg/kg i.v., D0, 4, 7, 11, 14, 17, D22.

By viability is commonly meant a read-out of living cells in per cent, often relative to untreated cells. Usually solubility stands for the concentration that dissolves in the medium under given conditions. Low values mean a poorly soluble substance, high ones a readily soluble substance.

Converted amounts (≈) assume the structure as drawn. “And” between values parts separate entries of the source, which are not always exact repeats. Equal entries are not always repeated. Where two headings read alike, the source gives them in different places.

Chain of human serum album (P02768 25-609): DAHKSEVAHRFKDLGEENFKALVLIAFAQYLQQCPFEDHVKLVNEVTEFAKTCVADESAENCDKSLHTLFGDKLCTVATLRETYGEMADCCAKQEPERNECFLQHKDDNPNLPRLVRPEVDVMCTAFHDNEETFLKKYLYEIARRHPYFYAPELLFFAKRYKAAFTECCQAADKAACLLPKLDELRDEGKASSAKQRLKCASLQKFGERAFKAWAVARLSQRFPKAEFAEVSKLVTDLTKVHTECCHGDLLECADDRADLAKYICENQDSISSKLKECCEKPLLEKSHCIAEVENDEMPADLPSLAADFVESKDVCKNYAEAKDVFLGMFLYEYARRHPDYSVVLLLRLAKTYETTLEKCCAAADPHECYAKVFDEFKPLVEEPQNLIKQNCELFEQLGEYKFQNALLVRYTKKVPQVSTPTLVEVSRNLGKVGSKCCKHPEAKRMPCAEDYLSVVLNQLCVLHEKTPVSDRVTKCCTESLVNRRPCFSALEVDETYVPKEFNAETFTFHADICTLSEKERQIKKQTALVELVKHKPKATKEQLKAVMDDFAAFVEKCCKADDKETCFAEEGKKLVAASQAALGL

Take `CC[C@@]1(O)C(=O)OCc2c1cc1n(c2=O)Cc2cc3cc(O)ccc3nc2-1` [10-hydroxyl CPT, 10-Hydroxy-CPT (SN22)]: the viability at 0.1 µM in data set [1] came to 53%; in data set [2] (HCT-116, 0.1 μM, 48 hours) it was 15%; in data set [3] (setting [9]), 72%. Further, the viability at 1 µM was 40% in data set [1]; 1% in [2] (HCT-116, 1.0 μM, 48 hours); 30% in data set [3] (setting [10]). Besides, the viability at 10 µM in [1] was found to be 18%; in data set [2] (HCT-116, 10 μM, 48 hours), 9%; in data set [3] (setting [11]) it was 24%.
`CC[C@@]1(O)C(=O)OCc2c1cc1n(c2=O)Cc2cc3ccccc3nc2-1` [CPT, Camptothecin]: the Lactone ring stability in data set [4] is <50%. Besides, the viability at 0.1 µM in [1] turned out to be 13%; in data set [2] (HCT-116, 48 h, 0.1 μM), 107%; in data set [3] (setting [9]) it was 65%. In addition, the viability at 1 µM in data set [1] is 5%; in data set [2] (HCT-116, 48 h, 1.0 μM) it was 76%; in data set [3] (setting [10]), 51%. Further, the viability at 10 µM was 3% in data set [1], 24% in data set [3] (setting [11]) and < 30% in [3] (setting [12]). For the same compound, the “HCT116 cell viability after drug treatment for 48 hours” value in data set [2] (1.0 μM) came to 82%. The solubility in “Water-solubility” is < 100 µg/mL.
As for `CC[C@@]1(OP(=O)(O)O)C(=O)OCc2c1cc1n(c2=O)Cc2cc3ccccc3nc2-1` [CPT-20(S)-phosphate], the Lactone ring stability in [4] was >90%. Also, the Water-solubility in “Water-solubility” was >10000 µg/mL. The Cancer cell viability in data set [3] (setting [13]) was >85%.
Take `CCc1c2c(nc3ccc(O)cc13)-c1cc3c(c(=O)n1C2)COC(=O)[C@]3(O)CC` [SN38]: the viability at 0.1 µM in data set [1] was 48%; in data set [2] (HCT-116, 48 h, 0.1 μM) it was 5%; in data set [3] (setting [9]), 79%. Further, the viability at 1 µM is 33% in data set [1]; 2% in data set [2] (HCT-116, 48 h, 1.0 μM); 60% in data set [3] (setting [10]). Besides, the viability at 10 µM in data set [1] was found to be 20%; in data set [2] (HCT-116, 48 h, 10 μM), 6%; in [3] (setting [11]) it was 28%.
Turning to `CCC(O)(C(=O)O)c1cc2n(c(=O)c1CO)Cc1cc3ccccc3nc1-2` (stereo not drawn) [carboxylate derivative], at human serum album, the “preferential binding to human serum album, relative to CPT” value is recorded as 150 fold.
Take `COc1cc([C@@H]2c3cc4c(cc3[C@@H](O[C@@H]3O[C@@H]5CO[C@@H](C)O[C@H]5[C@H](O)[C@H]3O)[C@H]3COC(=O)[C@H]23)OCO4)cc(OC)c1O` [etoposide]: the viability at 0.1 µM was found to be 102% in data set [2] (HCT-116, 48 h, 0.1 μM) and 95% in data set [3] (setting [9]). Also, the viability at 1 µM was determined as 89% in data set [2] (HCT-116, 48 h, 1.0 μM) and 73% in data set [3] (setting [10]). In addition, the viability at 10 µM is 29% in data set [2] (HCT-116, 48 h, 10 μM) and 47% in [3] (setting [11]).
Turning to `CCc1c2c(nc3ccc(OC(=O)N4CCC(N5CCCCC5)CC4)cc13)-c1cc3c(c(=O)n1C2)COC(=O)[C@]3(O)CC` [irinotecan, Irinotecan], the Lactone ring stability in [4] is listed as <50%. Moreover, the RTV22 in [5] (D0, 3, 7, 10, 14, 17) stood at 1.9 ± 0.4; in [6] (D0, 3, 7, 10, 14, 17), 4.9 ± 1.3. Besides, the “Animal body-weight (g_) End” value in [5] (D0, 3, 7, 10, 14, 17, end) stood at 20.6 ± 1.4 g; in data set [6] (D0, 3, 7, 10, 14, 17, end) it was 18.7 ± 1.7 g. The “Animal body-weight (g_) Start” value in [5] (D0, 3, 7, 10, 14, 17, start) turned out to be 19.0 ± 0.8 g. The same compound displayed a solubility in “Water-solubility” of 1000 µg/mL (≈ 1700 µM). The viability at 10 µM in [3] (setting [12]) is > 30%.
Turning to Topotecan, the Lactone ring stability in data set [4] is on record as <50%. In addition, the “MDAMB231 cell viability after drug treatment” value in [1] (0.1 μM) was 68%; in data set [1] (1.0 μM) it was 50%; in data set [1] (10 μM), 23%. The “HCT116 cell viability after drug treatment for 48 hours” value in data set [2] (0.1 μM) is reported as 26%; in data set [2] (1.0 μM) it was 2%; in [2] (10 μM) it was 6%. Further, the “MTD (Maximum Toxicity Dosage)” value in [7] (NCI-H446 nude mice, i.v., 6 administrations) was 10 mg/kg. Further, the animal death result in data set [7] (WQ1001 40 mg/kg Group, topotecan 10 mg/kg Group, to D22) is “no animal death appeared”. Further, the “tumor growth” value in [7] (WQ1001 10, 20 and 40 mg/kg, topotecan 10 mg/kg, 6 administrations i.v.) is “significantly inhibited tumor growth”. The “body weight change at the end of test” value in data set [7] (end of test (D22), WQ1001 40 mg/kg Group, topotecan 10 mg/kg Group) is “decreased significantly”. Further, the RTV22 in data set [7] (setting [14]) turned out to be 10.7 ± 4.8. Moreover, the “T22/C22 (%)” value in data set [7] (setting [14]) turned out to be 49.3%. Besides, the “Animal body-weight (g_) End” value worked out at 16.4 ± 1.5 g in data set [7] (topotecan 10 mg/kg i.v., D0, 4, 7, 11, 14, 17, end (D22)) and 19.2 ± 0.9 g in data set [8] (D2, 6, 10, end (Day 11)). Also, the “Animal body-weight (g_) Start” value in data set [7] (topotecan 10 mg/kg i.v., D0, 4, 7, 11, 14, 17, start) was 17.6 ± 1.2 g; in [8] (D2, 6, 10, start) it was 21.0 ± 1.6 g. Further, in “Water-solubility”, the Water-solubility worked out at 1000 µg/mL. This compound also returned an RTV11 in data set [8] (D2, 6, 10) of 25.3 ± 14.8. Further, in data set [8] (D2, 6, 10), the “T11/C11 (%)” value was 62.7%. Further, the “H446 cell viability after drug treatment for 48 hours” value in data set [3] (H446 cells, 0.1 μM, 48 hours) was 73%; in data set [3] (H446 cells, 1.0 μM, 48 hours), 50%; in data set [3] (H446 cells, 10 μM, 48 hours), 25% and 23%. Moreover, in [3] (setting [13]), the Cancer cell viability is listed as >30%.

These data come from patent publication US9266911B2, “Camptothecin derivative, and preparation method thereof, and pharmaceutical composition and application” (priority 2011, dated 2016).
